The test system of this test is Bacillus polymyxa BN-109. As to the kind of experiment: Sensitivity of producing strain BN-109 towards antibiotics (disc method). The class given is cell-based. The source says:
14. Sensitivity towards antibiotics (disc method):
Take `CC1(C)S[C@@H]2[C@H](NC(=O)Cc3ccccc3)C(=O)N2[C@H]1C(=O)O` [penicillin]: the Sensitivity towards antibiotics entry is reported as “Sensitive”.

Turning to `NC[C@H]1O[C@H](O[C@H]2[C@H](O)[C@@H](O[C@H]3O[C@H](CO)[C@@H](O)[C@H](N)[C@H]3O)[C@H](N)C[C@@H]2N)[C@H](O)[C@@H](O)[C@@H]1O` [kanamycin], the Sensitivity towards antibiotics result is reported as “Sensitive”. On to `CN(C)C1C(=O)C(C(N)=O)=C(O)C2(O)C(=O)C3=C(O)c4c(O)cccc4C(C)(O)C3CC12` (centres unmarked) [tetracyclin], for which the Sensitivity towards antibiotics entry is “Sensitive”. The value for `NC[C@H]1O[C@H](O[C@H]2[C@H](O[C@@H]3O[C@H](CO)[C@@H](O)[C@H]3O)[C@@H](O)[C@H](N)C[C@@H]2N)[C@H](N)[C@@H](O)[C@@H]1O` [vistamycin] was “Sensitive”; that for Polymyxin B was “Resistant”. To `O=C(Cc1cccs1)N[C@@H]1C(=O)N2C(C(=O)[O-])=C(C[n+]3ccccc3)CS[C@H]12` [cephalolidin] belongs “Sensitive”; to `CC[C@H]1OC(=O)[C@H](C)[C@@H](O[C@H]2C[C@@](C)(OC)[C@@H](O)[C@H](C)O2)[C@H](C)[C@@H](O[C@@H]2O[C@H](C)C[C@H](N(C)C)[C@H]2O)[C@](C)(O)C[C@@H](C)C(=O)[C@H](C)[C@@H](O)[C@]1(C)O` [erythromycin], “Sensitive”; to `[H]/N=C(/N)N[C@H]1[C@H](O)[C@@H](O)[C@H](O[C@@H]2O[C@@H](C)[C@](O)(C=O)[C@H]2O[C@@H]2O[C@@H](CO)[C@H](O)[C@@H](O)[C@@H]2NC)[C@@H](N/C(N)=N\[H])[C@@H]1O` [Streptomycin], “Sensitive”. The value for `O=C(N[C@H](CO)[C@H](O)c1ccc([N+](=O)[O-])cc1)C(Cl)Cl` [chloramphenical] was “Sensitive”; that for `CCn1cc(C(=O)O)c(=O)c2ccc(C)nc21` [nalidixic acid] was “Sensitive”. As to colistin, the Sensitivity towards antibiotics entry is reported as “Resistant”.

These data come from US3940479A (Meiji Seika Kaisha, Ltd., priority 1974, dated 1976).
